According to patent US9884854B2, “N-[(pyrimidinylamino)propanyl]-and N[(pyrazinylamino)proppanyl]arylcarboxamides” (Boehringer Ingelheim International GmbH, priority 2016, dated 2018):

Biological target: T1, human Orexin 1 receptor (Homo sapiens, UniProt O43613)
T1 construct: stably expressing the full-length human Orexin 1 receptor and the aequorin photoprotein; expressed in transfected cells; host or cells: CHO-K1 (CHO-K1/hOx1), co-expressing aequorin
T1 sequence (O43613 1-425): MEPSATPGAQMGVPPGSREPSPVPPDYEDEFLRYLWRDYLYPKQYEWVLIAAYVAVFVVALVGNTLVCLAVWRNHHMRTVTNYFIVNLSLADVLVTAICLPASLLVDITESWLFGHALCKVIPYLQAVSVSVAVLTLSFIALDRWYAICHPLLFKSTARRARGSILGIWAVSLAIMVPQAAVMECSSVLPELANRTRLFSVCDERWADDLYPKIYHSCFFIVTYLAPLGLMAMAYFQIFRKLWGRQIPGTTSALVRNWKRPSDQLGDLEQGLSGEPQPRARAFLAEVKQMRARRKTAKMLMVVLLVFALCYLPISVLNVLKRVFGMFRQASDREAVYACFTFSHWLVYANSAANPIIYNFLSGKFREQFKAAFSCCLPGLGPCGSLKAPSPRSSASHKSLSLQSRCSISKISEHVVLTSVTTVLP
Test: Assay A: OX1R IP1 (in vitro OX1R potency)
Format: cell-based
Settings: for Kb: 50 nM Orexin A concentration
Description: Activation of the orexin receptors expressed in cell lines results in an increase in intracellular IP3 concentration. IP1, a downstream metabolite of IP3, accumulates in cells following receptor activation and is stable in the presence of LiCl. Using Homogeneous Time-Resolved Fluorescence technology with Lumi4-Tb cryptate (commercially available from Cisbio Bioassay.) and a suitable fluorescence plate reader. […] This technique is used to characterize pharmacological modification of the orexin receptors.
A. In Vitro Testing of OX1R Potency: OX1R IP1
IP1 measurements are performed in CHO-K1 cells stably expressing the full-length human Orexin 1 receptor and the aequorin photoprotein. Cells are cultivated in Ham's nutrient mixture F12 medium with 10% fetal calf serum, in a 37° C., 95% humidity and 5% CO2 incubator. The CHO-K1/hOx1 cell mass is expanded to larger cell numbers. The cells are obtained as frozen cells in cryo-vials and stored until use at −150° C. […] In preparation for the assay, 24 hours before the assay, the cells are thawed at 37° C. and immediately diluted with cell culture medium. After centrifugation, the cell pellet is re-suspended in medium and then distributed into the assay plates with a density of 10000 cells/25 μL per well. The plates are incubated for one hour at room temperature to reduce edge effects before they are incubated for 24 hours at 37° C./5% CO2. Compounds are prepared by an 8-point serial dilution in DMSO and a final dilution step into assay buffer (HBSS with 20 mM HEPES, 0.1% BSA and 50 mM LiCl, pH 7.4) to ensure a final DMSO concentration of 1% in the assay.
On the day of the assay, cells in the plate are washed twice with 60 μL assay buffer (20 μL buffer remained in the wells after washing), followed by adding 5 μL per well of compounds diluted in assay buffer. After 15 minutes of incubation at room temperature 5 μL per well of Orexin A peptide (final concentration: 0.5 nM, and/or 50 nM) dissolved in assay buffer is added to the assay plate. The assay plate is incubated for 60 minutes at 37° C. Then 5 μl per well of Anti-IP1-Cryptate Tb solution and 5 μl per well of IP1-d2 dilution are added and the plate is incubated for a further 60 minutes light protected at room temperature. […] 8-point four parametric non-linear curve fitting and determination of IC50 values and Hill slopes is performed using a regular analysis software e.g. AssayExplorer (Accelrys).
Kb values from Assay A (OX1R) and Assay B (OX2R) can then provide a selectivity ratio which is independent of the agonist (Orexin A) concentration.

Compound | OX2R Kb/OX1R Kb | Kb | higher potency (versus Example 46 in WO2016/034882) | higher potency (versus Example 73 in WO2016/034882)
CCN(C(=O)c1ccccc1-n1nccn1)[C@@H](C)CNc1ncc(C(F)(F)F)cn1 [Example 1] | 404 | 0.048 nM | – | –
CCN(C(=O)c1cnc(C)nc1-c1ccccc1)[C@@H](C)CNc1ncc(C(F)(F)F)cn1 [Example 17] | 2500 | 0.0216 nM | – | –
CCN(C(=O)c1cccc(F)c1-n1nccn1)[C@@H](C)CNc1ncc(C(F)(F)F)cn1 [Example 18] | 352 | 0.0512 nM | – | –
CCN(C(=O)c1nc(C)ccc1-n1nccn1)[C@@H](C)CNc1ncc(C(F)(F)F)cn1 [Example 9] | 310 | 0.106 nM | > 10 fold | approximately 3 fold
